# Literature values, collected in PMC3725996 (Bioorganic & medicinal chemistry letters, 2010).
# Columns and labels:
# [1] = test system: extracellular DA in rat nucleus accumbens; conditions: following acute or repeated nicotine administration, ref [16]
# [2] = test system: nicotine self-administration; conditions: rats; ref [17]
structure (smiles),measurement,setting,value
"Cc1ccc[n+](CCCCCCCCCCCC[n+]2cccc(C)c2)c1.[Br-].[Br-] [bPiDDB 1, N,N′-dodecane-1,12-diyl-bis-3-picolinium dibromide]",Effect on increase in extracellular DA in nucleus accumbens,[1],dose-dependently reduced the increase in extracellular DA
same,Effect on nicotine self-administration,[2],dose-dependently decreased nicotine self-administration
same,Effect on sucrose-maintained responding,[2],but not sucrose-maintained responding
same,Oral bioavailability,"oral route, ref Albayati et al., unpublished data",limited bioavailability when given by the oral route
same,Brain bioavailability,"subcutaneous delivery, 14C-bPiDDB, ref [19]–[20]",brain-bioavailable after subcutaneous delivery
